System: oxazolone-induced colitis mice
Experiment: Oxazolone-induced acute colitis in mice for ulcerative colitis
Assay type: in vivo, Balb/c mice
Details: compound 1 5 mg/kg, tofacitinib 10 mg/kg; for bodyweight loss (bodyweight change, FIG. 1): PO BID 5 days (Days 4 to 8 after sensitization) in 0.5% CMC-Na; for DAI score (disease activity index, FIG. 2): PO BID 5 days, scored per Table 2; for colon density (FIG. 5) / colon length (FIG. 4) / colon weight (FIG. 3): colon collected Day 9, PO BID 5 days
Description: Compound 1 (i.e., lifitegrast) was evaluated in an oxazolone-induced colitis murine model, along with tofacitinib. Boirivant et al., J. Exp. Med. 1998, 188, 1929-39. Balb/c mice were randomly divided into 4 groups according to Table 1: 2 treatment groups (Treatment Groups), 1 vehicle group (Vehicle Group), and 1 sham group (Sham Group). The mice in Treatment and Vehicle Groups were sensitized with 200 μL of 2% oxazolone in acetone and olive oil (1:4), followed by injection of 100 μL of 1.5% oxazolone into the rectum of each mouse on Day 5 after sensitization. The mice in Sham Group were sensitized with 200 μL of a mixture of acetone and olive oil (1:4) without oxazolone, followed by injection of 100 μL of 50% ethanol/water into the rectum of each mouse on Day 5 after sensitization. Before the injection into the rectum, each mouse was anesthetized intraperitoneally with tribromoethanol (0.3 mL, 1.25%). From Days 4 to 8 after sensitization, the mice in Sham Group and Vehicle Group were each given 0.5% CMC-Na by gavage, and the mice in Treatment Groups were each given by gavage tofacitinib or compound 1 in 0.5% CMC-Na, respectively, according to the dosing schedule shown in Table 1.
The bodyweight of each mouse was measured daily. From Day 4 after sensitization, the fecal property and occult blood as determined with a fecal occult blood test (FOBT) of each mouse were measured daily to calculate a disease activity index (DAI) according to Table 2.
On Day 9 after sensitization, each mouse was euthanized and blood was collected from the heart. A serum was prepared and frozen for the determination of inflammatory factors.
The colon of each mouse was collected and photographed, and the colon length was measured and weighed after the removal of the content of the colon. A part of each colon collected was fixed using the Swiss roll technique in neutral paraformaldehyde for pathological scoring (Table 3) as described in Bialkowska et al., J. Vis. Exp. 2016, 113, e54161. The rest of the colon mucosa of each mouse was scraped and frozen for the determination of inflammatory factors.

CS(=O)(=O)c1cccc(C[C@H](NC(=O)c2c(Cl)cc3c(c2Cl)CCN(C(=O)c2ccc4ccoc4c2)C3)C(=O)O)c1 [compound 1, (S)-2-(2-(benzofuran-6-carbonyl)-5,7-dichloro-1,2,3,4-tetrahydroisoquinoline-6-carboxamido)-3-(3-(methylsulfonyl)phenyl)propanoic acid]
bodyweight loss (bodyweight change, FIG. 1): slowed the bodyweight loss | DAI score (disease activity index, FIG. 2): improved the DAI score | colon density (FIG. 5): able to reverse the disease effects | colon length (FIG. 4): able to reverse the disease effects | colon weight (FIG. 3): able to reverse the disease effects

C[C@@H]1CCN(C(=O)CC#N)C[C@@H]1N(C)c1ncnc2[nH]ccc12 [tofacitinib]
bodyweight loss (bodyweight change, FIG. 1): slowed the bodyweight loss | DAI score (disease activity index, FIG. 2): improved the DAI score | colon density (FIG. 5): able to reverse the disease effects | colon length (FIG. 4): able to reverse the disease effects | colon weight (FIG. 3): able to reverse the disease effects

— US20240197713A1, “LFA-1 ANTAGONISTS FOR TREATING INFLAMMATORY BOWEL DIESEASE” (VivaVision Biotech, Inc, priority 2022, published 2024)
